Laboratory results taken from ChEMBL document CHEMBL1152054, “Synthesis and evaluation of a -lactam-containing dipeptide analog as a protease inhibitor” (Bioorg Med Chem Lett, 1996).

How the values were obtained:
[1] = Compound was tested for inhibition of carboxypeptidase Y serine protease to produce one-half maximal enzyme activity.
[2] = Compound was tested for inhibition of elastase serine protease to produce one-half maximal enzyme activity.
[3] = molecular target: Chymotrypsinogen B (Homo sapiens, UniProt P17538); experiment: Compound was tested for inhibition of alpha-chymotrypsin serine protease to produce one-half maximal enzyme activity.
Sequence of Chymotrypsinogen B (P17538 34-164 limits assumed, other chains not shown): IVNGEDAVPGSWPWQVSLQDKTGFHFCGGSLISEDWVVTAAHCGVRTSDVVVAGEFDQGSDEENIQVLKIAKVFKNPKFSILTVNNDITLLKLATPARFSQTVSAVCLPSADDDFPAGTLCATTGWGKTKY
Sequence of Chymotrypsinogen B (P17538 167-263 limits assumed, other chains not shown): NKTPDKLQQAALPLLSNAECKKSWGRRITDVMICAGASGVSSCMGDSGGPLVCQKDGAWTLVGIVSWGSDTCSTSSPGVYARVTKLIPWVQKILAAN

[4] = Compound was tested for inhibition of proteinase K serine protease to produce one-half maximal enzyme activity.

Inhibition constant [1]: 0.3 mM
Inhibition constant [2]: > 1.2 mM
Inhibition constant [3]: 0.3 mM
Inhibition constant [4]: > 1.2 mM
SMILES: COC(=O)CN1CC(Cc2ccccc2)(NC(=O)c2ccccc2)C1=O (centres undefined)
